Data published in patent US7589097B2, “Triazol[4,5-d] pyramidine derivatives and their use as purinergic receptor antagonists” (Vernalis Research Limited, priority 2001, dated 2009).

SMILES: CN(Cc1cccc(Cn2nnc3c(-c4ccco4)nc(N)nc32)n1)S(C)(=O)=O [Example 239, N-(6-(5-amino-7-(2-furyl)-3H-[1,2,3]triazolo[4,5-d]pyrimidin-3-ylmethyl)-2-pyridylmethyl)-N-methyl methanesulphonamide]
- melting point: 205.8 to 206 °C

SMILES: CS(=O)(=O)Cc1cccc(Cn2nnc3c(-c4ccco4)nc(N)nc32)n1 [Example 238, 7-(2-furyl)-3-(6-methylsulphonylmethyl-2-pyridylmethyl)-3H-[1,2,3]triazolo[4,5-d]pyrimidine-5-amine]
- melting point: 238.2 to 238.6 °C

SMILES: Nc1nc(-c2ccco2)c2nnn(Cc3cnccn3)c2n1 [Example 128, 7-(2-furyl)-3-(2-pyrazinylmethyl)-3H-[1,2,3]triazolo[4,5-d]pyrimidine-5-amine]
- melting point: 129.1 to 131 °C

SMILES: Nc1cccc(Cn2nnc3c(-c4ccc[nH]4)nc(N)nc32)c1 [Example 191, 3-(3-aminobenzyl)-7-(1H-pyrrol-2-yl)-3H-[1,2,3]triazolo[4,5-d]pyrimidine-5-amine]
- melting point: 186.1 to 189.1 °C

SMILES: Cc1ccc(Cn2nnc3c(-c4ccco4)nc(N)nc32)cc1N [Example 90, 3-(3-amino-4-methylbenzyl)-7-(2-furyl)-3H-[1,2,3]triazolo[4,5-d]pyrimidine-5-amine]
- melting point: 268.5 to 269.1 °C

SMILES: Nc1nc(-c2ccco2)c2nnn(Cc3cc4ccccc4[nH]3)c2n1 [Example 207, 3-(2-indolylmethyl)-7-(2-furyl)-3H-[1,2,3]triazolo[4,5-d]pyrimidine-5-amine]
- melting point: 289.1 to 289.3 °C

SMILES: Cc1ccnc(Cn2nnc3c(-c4ccco4)nc(N)nc32)c1 [Example 131, 7-(2-furyl)-3-(4-methyl-2-pyridylmethyl)-3H-[1,2,3]triazolo[4,5-d]pyrimidine-5-amine]
- melting point: 225.7 to 225.8 °C

SMILES: Nc1cccc(Cn2nnc3c(-c4cncs4)nc(N)nc32)c1 [Example 50, 3-(3-aminobenzyl)-7-(5-thiazolyl)-3H-[1,2,3]triazolo[4,5-d]pyrimidine-5-amine]
- melting point: 228.2 to 228.3 °C

SMILES: CCOc1cccc(Cn2nnc3c(-c4ccco4)nc(N)nc32)n1 [Example 253, 3-(6-ethoxy-2-pyridylmethyl)-7-(2-furyl)-3H-[1,2,3]triazolo[4,5-d]pyrimidine-5-amine]
- melting point: 181.8 to 182.1 °C

SMILES: Nc1ccc(Cn2nnc3c(-c4ccco4)nc(N)nc32)cc1 [Example 141, 3-(4-aminobenzyl)-7-(2-furyl)-3H-[1,2,3]triazolo[4,5-d]pyrimidine-5-amine]
- melting point: 240.3 to 240.4 °C

SMILES: Nc1nc(-c2ccco2)c2nnn(CCc3cccs3)c2n1 [Example 196, 7-(2-furyl)-3-(2-(2-thienylethyl))-3H-[1,2,3]triazolo[4,5-d]pyrimidine-5-amine]
- melting point: 178.4 to 179 °C

SMILES: CC(=O)Nc1cccc(Cn2nnc3c(-c4ccco4)nc(N)nc32)c1 [Example 160]
- melting point: 277.4 to 277.9 °C

SMILES: Cc1cccc(Cn2nnc3c(-c4ccc(C)o4)nc(N)nc32)n1 [Example 59, 7-(5-methyl-2-furyl)-3-(6-methyl-2-pyridylmethyl)-3H-[1,2,3]triazolo[4,5-d]pyrimidine-5-amine]
- melting point: 187.9 to 188.7 °C

SMILES: CC(C)(C)OC(=O)NCc1ccccc1Cn1nnc2c(-c3ccco3)nc(N)nc21 [Example 157, tert-butyl N-(2-(5-amino-7-(2-furyl)-3H-[1,2,3]triazolo[4,5-d]pyrimidine-3-ylmethyl)benzyl)carbamate]
- melting point: 204.2 to 204.4 °C

SMILES: Cc1ccc(-c2nc(N)nc3c2nnn3Cc2ccc(N)cc2)o1 [Example 184, 3-(4-aminobenzyl)-7-(5-methyl-2-furyl)-3H-[1,2,3]triazolo[4,5-d]pyrimidine-5-amine]
- melting point: 219.7 to 220.4 °C

SMILES: Nc1nc(-c2ccco2)c2nnn(Cc3cc(F)ccc3[N+](=O)[O-])c2n1 [Example 155, 3-(5-fluoro-2-nitrobenzyl)-7-(2-furyl)-3H-[1,2,3]triazolo[4,5-d]pyrimidine-5-amine]
- melting point: 258.6 to 258.7 °C

SMILES: Cc1ccc(-c2nc(N)nc3c2nnn3Cc2cccc(Cl)n2)o1 [Example 81, 3-(6-chloro-2-pyridylmethyl)-7-(5-methyl-2-furyl)-3H-[1,2,3]triazolo[4,5-d]pyrimidine-5-amine]
- melting point: 229.3 to 229.4 °C

SMILES: Cc1cc(Cn2nnc3c(-c4ccco4)nc(N)nc32)cc(C)c1[N+](=O)[O-] [Example 259, 3-(3,5-dimethyl-4-nitrobenzyl)-7-(2-furyl)-3H-[1,2,3]triazolo[4,5-d]pyrimidine-5-amine]
- melting point: 228.4 to 228.5 °C

SMILES: Nc1ccc(F)c(Cn2nnc3c(-c4ccco4)nc(N)nc32)c1 [Example 79, 3-(5-amino-2-fluorobenzyl)-7-(2-furyl)-3H-[1,2,3]triazolo[4,5-d]pyrimidine-5-amine]
- melting point: 308.2 to 308.3 °C

SMILES: Cc1cnc(Cn2nnc3c(-c4ccco4)nc(N)nc32)cn1 [Example 106, 7-(2-furyl)-3-(5-methyl-2-pyrazinylmethyl)-3H-[1,2,3]triazolo[4,5-d]pyrimidine-5-amine]
- melting point: 288.1 to 288.2 °C

SMILES: Nc1nc(-c2ccco2)c2nnn(CC(=O)NCc3ccccn3)c2n1 [Example 53, (5-amino-7-(2-furyl)-3H-[1,2,3]triazolo[4,5-d]pyrimidin-3-yl)-N-(2-pyridylmethyl)acetamide]
- melting point: 256.1 to 256.4 °C

SMILES: CC(C)(C)OC(=O)n1ccc2cc(Cn3nnc4c(-c5ccco5)nc(N)nc43)ccc21 [Example 142, tert-butyl 5-(5-amino-7-(2-furyl)-3H-[1,2,3]triazolo[4,5-d]pyrimidine-3-ylmethyl)indole-1-carboxylate]
- melting point: 189 to 189.1 °C

SMILES: Cc1ccc(-c2nc(N)nc3c2nnn3Cc2cccc(CNC(=O)OC(C)(C)C)c2)o1 [Example 73, tert-butyl N-(3-(5-amino-7-(5-methyl-2-furyl)-3H-[1,2,3]triazolo[4,5-d]pyrimidine-3-ylmethyl)benzyl)carbamate]
- melting point: 178.7 to 179.3 °C

SMILES: Nc1nc(-c2ccco2)c2nnn(Cc3ccc(N)c(O)c3)c2n1 [Example 173, 3-(4-amino-3-hydroxybenzyl)-7-(2-furyl)-3H-[1,2,3]triazolo[4,5-d]pyrimidine-5-amine]
- melting point: 239.6 to 239.8 °C

SMILES: Nc1nc(-c2ccco2)c2nnn(Cc3ccc4cc[nH]c4c3)c2n1 [Example 152, 7-(2-Furyl)-3-(6-indolylmethyl)-3H-[1,2,3]triazolo[4,5-d]pyrimidine-5-amine]
- melting point: 298.9 to 299 °C

SMILES: Nc1nc(-c2ccco2)c2nnn(Cc3cccc(CN4C(=O)c5ccccc5C4=O)n3)c2n1 [Example 164, 7-(2-furyl)-3-(6-phthalimidomethyl-2-pyridylmethyl)-3H-[1,2,3]triazolo[4,5-d]pyrimidine-5-amine]
- melting point: 120.1 to 121 °C

SMILES: C=CCOCc1cccc(Cn2nnc3c(-c4ccco4)nc(N)nc32)n1 [Example 185, 3-(6-allyloxymethyl-2-pyridylmethyl)-7-(2-furyl)-3H-[1,2,3]triazolo[4,5-d]pyrimidine-5-amine]
- melting point: 155.6 to 157.1 °C

SMILES: CC(C)(C)OC(=O)n1ccc2cccc(Cn3nnc4c(-c5ccco5)nc(N)nc43)c21 [Example 137, tert-butyl 7-(5-amino-7-(2-furyl)-3H-[1,2,3]triazolo[4,5-d]pyrimidine-3-ylmethyl)indole-1-carboxylate]
- melting point: 176.3 to 176.5 °C

SMILES: NCc1ccccc1Cn1nnc2c(-c3ccco3)nc(N)nc21 [Example 161, 3-(2-aminomethylbenzyl)-7-(2-furyl)-3H-[1,2,3]triazolo[4,5-d]pyrimidine-5-amine]
- melting point: > 250 °C (dec.)

SMILES: Cc1csc(-c2nc(N)nc3c2nnn3Cc2cccc([N+](=O)[O-])c2)n1 [Example 109, 7-(4-methyl-2-thiazolyl)-3-(3-nitrobenzyl)-3H-[1,2,3]triazolo[4,5-d]pyrimidine-5-amine]
- melting point: 289.8 to 289.9 °C

SMILES: Nc1cccc(Cn2nnc3c(-c4ccn[nH]4)nc(N)nc32)c1 [Example 175, 3-(3-aminobenzyl)-7-(1H-pyrazol-3-yl)-3H-[1,2,3]triazolo[4,5-d]pyrimidine-5-amine]
- melting point: 279.3 to 281.3 °C

SMILES: Nc1nc(-c2ccco2)c2nnn(Cc3cccc4[nH]ccc34)c2n1 [Example 139, 7-(2-furyl)-3-(4-indolylmethyl)-3H-[1,2,3]triazolo[4,5-d]pyrimidine-5-amine]
- melting point: 192.3 to 193.5 °C

SMILES: CNC(=O)c1cccc(Cn2nnc3c(-c4ccc(C)o4)nc(N)nc32)c1 [Example 67, 3-(5-amino-7-(5-methyl-2-furyl)-3H-[1,2,3]triazolo[4,5-d]pyrimidin-3-ylmethyl)-N-methylbenzamide]
- melting point: 252.9 to 253 °C

SMILES: Nc1nc(-c2ccco2)c2nnn(CC(=O)c3ccccc3)c2n1 [Example 211, 2-(5-Amino-7-(2-furyl)-3H-[1,2,3]triazolo[4,5-d]pyrimidin-3-yl)-1-phenylethanone]
- melting point: 257.1 to 257.3 °C

SMILES: Cc1cccc(C(=O)C(C)n2nnc3c(-c4ccco4)nc(N)nc32)n1 (stereo not shown) [Example 190, 2-(5-amino-7-(2-furyl)-3H-[1,2,3]triazolo[4,5-d]pyrimidin-3-yl)-1-(6-methyl-2-pyridyl)propanone]
- melting point: 290.2 to 290.3 °C

SMILES: Nc1nc(-c2ccco2)c2nnn(Cc3ccc(Cl)c([N+](=O)[O-])c3)c2n1 [Example 110, 3-(4-chloro-3-nitrobenzyl)-7-(2-furyl)-3H-[1,2,3]triazolo[4,5-d]pyrimidine-5-amine]
- melting point: 247.4 to 247.5 °C

SMILES: NCc1ccc(Cn2nnc3c(-c4ccco4)nc(N)nc32)cc1 [Example 144, 3-(4-aminomethylbenzyl)-7-(2-furyl)-3H-[1,2,3]triazolo[4,5-d]pyrimidine-5-amine]
- melting point: > 300 °C (dec.)

SMILES: COc1ccc(C(=O)Cn2nnc3c(-c4ccco4)nc(N)nc32)cc1 [Example 229, 2-(5-amino-7-(2-furyl)-3H-[1,2,3]triazolo[4,5-d]pyrimidin-3-yl)-1-(4-methoxyphenyl)ethanone]
- melting point: 258.2 to 258.4 °C

SMILES: CSCc1cccc(Cn2nnc3c(-c4ccco4)nc(N)nc32)n1 [Example 234, 7-(2-furyl)-3-(6-methylthiomethyl-2-pyridylmethyl)-3H-[1,2,3]triazolo[4,5-d]pyrimidine-5-amine]
- melting point: 168.3 to 168.5 °C

SMILES: C[Si](C)(C)CCOCOc1cc([N+](=O)[O-])ccc1Cn1nnc2c(-c3ccco3)nc(N)nc21
- melting point: 136.5 to 137.6 °C
